This note sets out measurements from a polymer gas permeability compilation.

As for `*Nc1ccc(Cc2ccc(NC(=O)CN3C(=O)c4ccc(C(*)=O)cc4C3=O)cc2)cc1` (repeat unit), the CH4 permeability is 0.01 Barrer, the CO2 permeability was 0.264 Barrer, the N2 permeability stood at 0.017 Barrer and the O2 permeability turned out to be 0.065 Barrer.

`*c1ccc(S(=O)(=O)c2ccc(N3C(=O)c4ccc(-c5ccc6c(c5)C(=O)N(*)C6=O)cc4C3=O)cc2)cc1` (repeat unit) returned a CH4 permeability of 0.0625 Barrer, a CO2 permeability of 2.16 Barrer, an H2 permeability of 11.3 Barrer and an N2 permeability of 0.0499 Barrer. The same compound came in with an O2 permeability of 0.348 Barrer.

As to `*c1ccc(-c2ccc(N3C(=O)c4ccc([Si](C)(C)c5ccc6c(c5)C(=O)N(*)C6=O)cc4C3=O)c(C)c2)cc1C` (repeat unit), the H2 permeability turned out to be 10.9 Barrer, the N2 permeability stood at 0.094 Barrer and the O2 permeability was 0.663 Barrer.

For `*CC(*)c1ccc(C[Si](C)(C)C)cc1` (repeat unit), the CH4 permeability turned out to be 7.8 Barrer, the CO2 permeability was found to be 79.8 Barrer, the H2 permeability is 54 Barrer and the O2 permeability was 19.9 Barrer.

Consider `*CC(*)F` (repeat unit), for which the CO2 permeability was found to be 0.0791 Barrer and the H2 permeability was 0.35 Barrer.

In turn, `*C/C=C(/Cl)C*` (repeat unit) displayed a CH4 permeability of 3.28 Barrer, a CO2 permeability of 25.6 Barrer, an H2 permeability of 20.6 Barrer and an N2 permeability of 2.07 Barrer. The compound further showed an O2 permeability of 4 Barrer.

Compound `*OCC1OC(COCC)C(*)C(OCC)C1OCC` (repeat unit) yielded a CH4 permeability of 6.1 Barrer, a CO2 permeability of 67.7 Barrer, an H2 permeability of 54.4 Barrer and an N2 permeability of 3.18 Barrer. The O2 permeability is 11.9 Barrer.

`*c1ccc(Sc2ccc(N3C(=O)c4ccc(-c5ccc6c(c5)C(=O)N(*)C6=O)cc4C3=O)cc2)cc1` (repeat unit) registered a CH4 permeability of 0.0164 Barrer, a CO2 permeability of 0.774 Barrer and an N2 permeability of 0.022 Barrer.

Compound `*Oc1ccc(-c2c(-c3ccc(C#N)cc3)c(-c3ccc(C#N)cc3)c(-c3ccc4c(c3)Oc3c(C#N)c(*)c(*)c(C#N)c3O4)c(-c3ccc(C#N)cc3)c2-c2ccc(C#N)cc2)cc1O*` (repeat unit) came in with a CH4 permeability of 93 Barrer, a CO2 permeability of 1300 Barrer, an H2 permeability of 734 Barrer and an N2 permeability of 52 Barrer. This compound also gave an O2 permeability of 205 Barrer.

`*Oc1ccc(-c2c(-c3ccc(C)cc3)c(-c3ccc(C)cc3)c(-c3ccc4c(c3)Oc3c(C#N)c(*)c(*)c(C#N)c3O4)c(-c3ccc(C)cc3)c2-c2ccc(C)cc2)cc1O*` (repeat unit) yielded a CH4 permeability of 132 Barrer, a CO2 permeability of 1630 Barrer, an H2 permeability of 856 Barrer and an N2 permeability of 60 Barrer. This compound came in with an O2 permeability of 256 Barrer.

As to `*c1ccc(C2(c3ccc(N4C(=O)c5ccc(C(c6ccc7c(c6)C(=O)N(*)C7=O)(C(F)(F)F)C(F)(F)F)cc5C4=O)cc3)c3cc(C(C)(C)C)ccc3-c3ccc(C(C)(C)C)cc32)cc1` (repeat unit), the CH4 permeability was determined as 14.6 Barrer, the CO2 permeability stood at 271 Barrer and the N2 permeability stood at 14.1 Barrer.

For `*OC(=O)c1cccc(C(=O)Oc2ccc(C(C)(C)c3ccc(O*)c(C)c3)cc2C)c1` (repeat unit), the CH4 permeability was determined as 0.044 Barrer, the CO2 permeability was found to be 2.5 Barrer, the N2 permeability came out at 0.076 Barrer and the O2 permeability stood at 0.46 Barrer.

As for `*Oc1ccc(C(C)(C)c2cccc(C(C)(C)c3ccc(Oc4ccc(S(=O)(=O)c5ccc(*)cc5)cc4)cc3)c2)cc1` (repeat unit), the CH4 permeability turned out to be 0.111 Barrer, the CO2 permeability was 2.8 Barrer, the H2 permeability was found to be 10.6 Barrer and the N2 permeability stood at 0.11 Barrer. This compound also registered an O2 permeability of 0.69 Barrer.

With `*C1C(*)C2CC1C1C[CH]([Ge]([CH3])([CH3])[CH3])C21` (repeat unit), the CH4 permeability worked out at 620 Barrer.

`*C(=C(*)c1ccc2c(c1)C(C)(C)c1ccccc1-2)c1ccc(Br)cc1` (repeat unit): the CH4 permeability was determined as 9300 Barrer, the CO2 permeability was 17000 Barrer, the H2 permeability turned out to be 8700 Barrer and the N2 permeability stood at 3500 Barrer. The compound also returned an O2 permeability of 5000 Barrer.

The compound `*Oc1ccc(-c2ccc(Oc3ccc(S(=O)(=O)c4ccc(*)cc4)cc3)cc2)cc1` (repeat unit) gave a CH4 permeability of 0.25 Barrer, a CO2 permeability of 5.6 Barrer, an H2 permeability of 28 Barrer and an N2 permeability of 0.24 Barrer. The compound further gave an O2 permeability of 1.3 Barrer.

In the case of `*Nc1ccc(C(c2ccc(NC(=O)c3cc(C(*)=O)cc(-c4ccccc4)c3)cc2)(C(F)(F)F)C(F)(F)F)cc1` (repeat unit), the CH4 permeability turned out to be 0.78 Barrer, the CO2 permeability came to 21 Barrer, the H2 permeability is 42 Barrer and the N2 permeability stood at 1.2 Barrer. Besides, the O2 permeability came to 5.5 Barrer.

On to `*[Si](C)(C)CCCCCC[Si](*)(C)C` (repeat unit), for which the N2 permeability came out at 81 Barrer and the O2 permeability was determined as 182 Barrer.

The compound `*Oc1c(C)cc(*)c([N+](=O)[O-])c1C` (repeat unit) had a CH4 permeability of 2.4 Barrer, a CO2 permeability of 40.4 Barrer, an N2 permeability of 2.4 Barrer and an O2 permeability of 11.5 Barrer.

As to `*CC(*)CC(C)C` (repeat unit), the CO2 permeability was 92.6 Barrer and the O2 permeability was found to be 32.3 Barrer.

The compound `*c1ccc2c(c1)C(=O)n1c-2nc2ccc(-c3ccc4c(c3)nc3n4C(=O)c4ccc(C(*)(C(F)(F)F)C(F)(F)F)cc4-3)cc21` (repeat unit) yielded an H2 permeability of 74.4 Barrer, an N2 permeability of 1.44 Barrer and an O2 permeability of 7.75 Barrer.

For `*C(=O)n1c(*)nc2cc3nc4c5ccc(*)c6c(*)ccc(c(=O)n4c3cc21)c65` (repeat unit), the CH4 permeability was 0.0017 Barrer, the CO2 permeability stood at 0.12 Barrer, the N2 permeability worked out at 0.00259 Barrer and the O2 permeability is 0.021 Barrer.

As to `*c1ccc(Sc2ccc(Sc3ccc(Sc4ccc(N5C(=O)c6ccc(C(c7ccc8c(c7)C(=O)N(*)C8=O)(C(F)(F)F)C(F)(F)F)cc6C5=O)cc4)cc3)cc2)cc1` (repeat unit), the CH4 permeability turned out to be 0.22 Barrer, the CO2 permeability was 8.37 Barrer, the N2 permeability was 0.37 Barrer and the O2 permeability came out at 1.72 Barrer.

Turning to `*c1ccc(C(c2ccc(-c3nc4cc(C(c5ccc6oc(*)nc6c5)(C(F)(F)F)C(F)(F)F)ccc4o3)cc2)(C(F)(F)F)C(F)(F)F)cc1` (repeat unit), the CH4 permeability came out at 176 Barrer, the CO2 permeability came to 4540 Barrer, the H2 permeability stood at 3900 Barrer and the N2 permeability came to 300 Barrer. In addition, the O2 permeability stood at 1150 Barrer.

Turning to `*c1c(C)cc(-c2cc(C)c(-c3cc(C)c(*)c(C)c3)cc2C)cc1C` (repeat unit), the CH4 permeability was 15 Barrer, the CO2 permeability amounted to 360 Barrer, the H2 permeability amounted to 350 Barrer and the N2 permeability worked out at 16.5 Barrer. The same compound had an O2 permeability of 67 Barrer.

`*C(=O)c1ccc([Si](C)(C)c2ccc(C(*)=O)cc2)cc1` (repeat unit): the CH4 permeability was found to be 1.39 Barrer, the CO2 permeability worked out at 22.2 Barrer, the H2 permeability was found to be 27.1 Barrer and the N2 permeability was 1.37 Barrer. This compound also had an O2 permeability of 5.54 Barrer.

`*c1cc2c(cc1C)-c1cc(C)c(N3C(=O)c4ccc(-c5ccc6c(c5)C(=O)N(*)C6=O)cc4C3=O)cc1S2(=O)=O` (repeat unit): the CH4 permeability was 0.037 Barrer, the CO2 permeability is 2.74 Barrer, the N2 permeability was 0.0763 Barrer and the O2 permeability was found to be 0.577 Barrer.

As for `*c1cc(C(c2ccc(O)c(N3C(=O)c4ccc(C(c5ccc6c(c5)C(=O)N(*)C6=O)(C(F)(F)F)C(F)(F)F)cc4C3=O)c2)(C(F)(F)F)C(F)(F)F)ccc1O` (repeat unit), the CH4 permeability was determined as 0.08 Barrer, the CO2 permeability was 9.9 Barrer, the H2 permeability was 35 Barrer and the N2 permeability was found to be 0.4 Barrer. Moreover, the O2 permeability was determined as 2.6 Barrer.

`*c1c(C)c(C)c(N2C(=O)c3ccc(Oc4cc(C(C)(C)C)ccc4Oc4ccc5c(c4)C(=O)N(*)C5=O)cc3C2=O)c(C)c1C` (repeat unit) gave a CH4 permeability of 3.1 Barrer, a CO2 permeability of 71 Barrer, an H2 permeability of 91 Barrer and an N2 permeability of 2.55 Barrer. Also, the O2 permeability amounted to 12 Barrer.

With `*Oc1cc2c(cc1O*)C1(c3ccccc3-2)c2ccccc2-c2cc3c(cc21)Oc1c(C#N)c(*)c(*)c(C#N)c1O3` (repeat unit), the CH4 permeability was 622 Barrer, the CO2 permeability was 8890 Barrer, the H2 permeability turned out to be 4520 Barrer and the N2 permeability is 442 Barrer. The compound also gave an O2 permeability of 1620 Barrer.

The compound `*C(=C(*)c1ccc2c(ccc3ccccc32)c1)c1ccccc1` (repeat unit) gave a CH4 permeability of 1450 Barrer, a CO2 permeability of 5300 Barrer, an H2 permeability of 2500 Barrer and an N2 permeability of 650 Barrer. The same compound came in with an O2 permeability of 1300 Barrer.

On to `*OC(=O)c1cccc(C(=O)Oc2c(C)cc(C(C)(C)c3cc(C)c(O*)c(C)c3)cc2C)c1` (repeat unit), for which the CH4 permeability was found to be 0.53 Barrer, the CO2 permeability turned out to be 24 Barrer, the N2 permeability was 0.68 Barrer and the O2 permeability was 3.5 Barrer.

As for `*CC(*)c1ccc(Br)cc1` (repeat unit), the CH4 permeability was 0.48 Barrer, the CO2 permeability is 8.5 Barrer, the N2 permeability worked out at 0.32 Barrer and the O2 permeability stood at 1.9 Barrer.

Compound `*CC(*)(C)C(=O)OCCOCCOCC` (repeat unit) gave a CH4 permeability of 11.4 Barrer, a CO2 permeability of 133 Barrer, an N2 permeability of 3.6 Barrer and an O2 permeability of 11.4 Barrer.

With `*CC(C)O*` (repeat unit), the CH4 permeability was 34 Barrer, the CO2 permeability was 190 Barrer, the H2 permeability stood at 42 Barrer and the N2 permeability was determined as 11 Barrer. Also, the O2 permeability worked out at 28 Barrer.
